AC50 data for six molecules are collected here from PubChem BioAssay AID588838 (Broad Institute, 2011).

The assay deals with P. falciparum Dd2 in RBCs, SYBR green growth. Nature of the assay: antimalarial activity against Dd2 parasites – Dd2 strain, red blood cells, dry powder, PfHsp90 inhibitor project, dose response (AID 588838).

With `O=S(=O)(/C=C/c1ccccc1)NC1CCCCCCC1`, the AC50 is 66.1 µM.
Next, `Cc1ccc(OCc2n[nH]c(=S)n2C2CCCCC2)cc1`: 60.6 µM; `COc1ccc2c(c1)C=C(C(=O)NCc1ccc(Cl)cc1)CO2`: 43.9 µM.
The same measure for `O=S(=O)(NC1CCCCCC1)c1ccc(Br)s1`: 16.3 µM; for `O=C(CSCC(=O)N1CCCCC1)Nc1nc(-c2ccc(Cl)s2)cs1`: 40 µM; for `O=S(=O)(NC1CC2CCC1C2)c1ccc(Cl)cc1` (stereo unspecified): 98.5 µM.

For orientation: AC50 means the concentration giving half of the maximal activity seen.
